In data set [1] the test system is rats. Kind of data set: Tail flick analgesic test. The format is in vivo. To be noted: intranasally 0.005 mg/kg. The source says: Opium-like activity was studied in a classical way by […] tests on isolated organs: - Test GPI (Guang T.A, Kosterlitz H.W, Agonist and antagonist action of morphine like drugs on the guinea pigs isolated ileum, Br.J. Pharmacol., 1966, V.27N3.P.514-527 - Test MVD; Hughs J., Kosterlitz H.W., Leslie F.M, Effect of morphine on adrenergic transmission in mouse is different. Assessment of agonist and antagonist potencies of narcotics, Br.J. Pharmacol., 1975, V. 53, N3-P. 371-381) As well as tests to determine opium-like activities by the […] hot plate test (Aukier S.I., New hot plate tests to qualify analgesic and narcotic antagonist activities, Eur.J. Pharmacol., 174 - V.27 Ni p.1-4) and "Tail flick" on rats (D'Amour F.E., Smith D.L, A method for determining loss, Exp.Ther.,1974, V.72 Ni-p.74-79).
The analgesic activities of those peptides were tested by the "tail flick" method on rats which received intranasally a dose of 0.005 mg/kg. A real analgesic effect of 242 units was characteristic to the peptide H-Arg-Tyr-D-Ala-Phe-Gly-OH. Table 2 outlines the findings with regard to the opium-like activity for this peptide group.

Non-standard residues stand in square brackets, D forms with d. Residues, ends and D or L forms follow the SMILES beside them.

In data set [1], `C[C@@H](NC(=O)[C@H](Cc1ccc(O)cc1)NC(=O)[C@@H](N)CCCNC(=N)N)C(=O)N[C@@H](Cc1ccccc1)C(=O)NCC(=O)O` [H-Arg-Tyr-D-Ala-Phe-Gly-OH] (H-RY[dA]FG-OH) came in with an analgesic effect of 242 units. Besides, the solubility in alcohol entry (alcohol) is “not well dissolvable in alcohol”. Moreover, the solubility in chloroform result (chloroform) is “nonsoluble in chloroform”. Moreover, the solubility in water result (water) was “dissolvable in water”.

Values taken from patent EP0779076A1, “PEPTIDE, A METHOD OF OBTAINING IT AND A PHARMACEUTICAL COMPOUND BASED ON IT” (priority 1994, dated 1996).
